Results reported in US9574239B2, “MicroRNA signatures in human ovarian cancer” (The Ohio State University Research Foundation, priority 2007, dated 2017).

Tests used:
Format in all cases: cell-based, human
OVCAR3 cells [1] = assay: Northern blot of miR-21 in OVCAR3 cells after demethylating treatment; details: OVCAR3, before vs after treatment; FIG. 5D
Experimental: Northern blot analysis was performed as previously described. RNA samples (10 μg each) were run on 15% Polyacrylamide, 7M Urea Criterion pre-casted gels (Bio-Rad, Hercules, Calif.) and transferred onto Hybond-N+ membranes (Amersham, Piscataway, N.J.). The hybridization was performed at 370 C in ULTRAhyb-Oligo hybrization buffer (Ambion, Austin, Tex.) for 16 hours. Membranes were washed at 370 C, twice with 2×SSPE and 0.5% SDS. 5S RNA or EtBr gel staining were used to normalize 200 ng of each probe was end labeled with 100 μCi [gamma-32P]-ATP using the polynucleotide kinase (Roche). Blots were stripped in boiling 0.1% SDS for 10 minutes before re-hybridization. OVCAR3 cells were seeded at low density 48 h before treatment with 10 μM 5′aza-2′deoxycytidine (5′-AZA, Sigma). After 24 h of treatment, cells were collected and total RNA was isolated using Trizol reagent (Invitrogen).

OVCAR3 cells [2] = assay: miR expression by microarray profiling of OVCAR3 cells before and after demethylating treatment; details: 10 μM, 24 h
Experimental: Total RNA isolation was performed with Trizol (Invitrogen, Carlsbad, Calif.) according to the manufacturer's instructions. RNA labeling and hybridization on microRNA microarray chips were performed as previously described (28) using 5 μg of total RNA from each sample. Hybridization was carried out on our microRNA microarray (Ohio State Comprehensive Cancer Center, version 2.0), which contains probes for 460 mature microRNAs spotted in quadruplicate (235 homo sapiens, 222 mus musculus, and three Arabidopsis thaliana) with annotated active sites. Often, more than one probe set exists for a given mature microRNA. Additionally, there are quadruplicate probes corresponding to most precursor microRNAs. Hybridization signals were detected with Streptavidin-Alexa647 conjugate and scanned images (Axon 4000B) were quantified using the Genepix 6.0 software (Axon Instruments, Sunnyvale, Calif.).
Microarray images were analyzed by using GENEPIX PRO. Average values of the replicate spots of each miRNA were background subtracted, normalized, and subjected to further analysis. We performed a global median normalization of Ovary microarray data by using BRB ArrayTools developed by Richard Simon & Amy Peng Lam (29). Absent calls were thresholded to 4.5 before subsequent statistical analysis. This level is the average minimum intensity level detected in the experiments. miRNA nomenclature was according to the Genome Browser (genome.ucsc.edu) and the miRNA database at Sanger Center (microrna.sanger.ac.uk/); in case of discrepancies the miRNA database was followed. Differentially expressed miRNAs were identified by using the t test procedure within significance analysis of microarrays (SAM), a method developed at Stanford University Labs based on recent paper of Tusher, Tibshirani and Chu (30).
OVCAR3 cells were seeded at low density 48 h before treatment with 10 μM 5′aza-2′deoxycytidine (5′-AZA, Sigma). After 24 h of treatment, cells were collected and total RNA was isolated using Trizol reagent (Invitrogen). 3 replicates for both untreated cells and AZA-treated cells were used to evaluate the miR expression by Microarray profiling. Differentially expressed microRNAs were identified by using univariate two-classes T-test with random variance model.

OVCAR3 cells [3] = assay: Real-Time PCR of miR expression levels in OVCAR3 cells after demethylating treatment; details: OVCAR3, before vs after treatment; FIG. 5C
Experimental: Relative expression was calculated using the comparative Ct method.

[4] = OVCAR3, before vs after treatment, p<0.001

Nc1ncn([C@H]2C[C@H](O)[C@@H](CO)O2)c(=O)n1 [5-aza-2′-deoxycytidine]
miR-21 expression (Northern Blot, normalized with EtBr gel staining) (OVCAR3 cells [1]): up-modulation | expression of miR-21, miR-203, miR-146b, miR-205, miR-30-5p and miR-30c (OVCAR3 cells [2]; OVCAR3, before vs after treatment): most significant induced upon treatment | human microRNAs differentially expressed (number) (OVCAR3 cells [2]; [4]): 11 | human microRNAs down-modulated (number) (OVCAR3 cells [2]; [4]): 2 | human microRNAs up-modulated (number) (OVCAR3 cells [2]; [4]): 9 | levels of miR-21, miR-203 and miR-205 after demethylating treatment (OVCAR3 cells [2]; OVCAR3 cells): significantly increased | expression levels of the 5 most significantly induced miRs (Real-Time PCR) (OVCAR3 cells [3]): up-modulation
